Assay results as given in patent US20070128217A1 (priority 2003, published 2007).

Experiments:
[1] = test system: rabbit serum obtained by immunizing a rabbit with the SARS-CoV strain Frankfurt 1; assay type: binding; parameters: Binding of a rabbit serum to linear peptides / Binding of a rabbit serum to looped peptides / Rabbit serum linear peptides / Rabbit serum looped peptides / Binding of a rabbit serum to linear peptides of protein N of SARS-CoV Urbani (Rabbit serum linear peptides) / Binding of a rabbit serum to looped/cyclic peptides of protein N of SARS-CoV Urbani (Rabbit serum looped peptides): unit not given here
[2] = test system: antibodies in sera from SARS patients (sera 1a, 1b, 2, 6, 37, 62, London, SARS-yellow, SARS-green); assay type: binding, human; parameters: Binding of serum 6 to linear peptides of protein X1 of SARS-CoV Urbani / Binding of serum 37 to linear peptides of protein X1 of SARS-CoV Urbani / Binding of serum 6 to looped/cyclic peptide (PEPSCAN-ELISA) / Binding of serum 37 to looped/cyclic peptide (PEPSCAN-ELISA) / Binding of serum 37 to looped/cyclic peptides of protein X1 of SARS-CoV Urbani / Binding of serum 6 to linear peptides of protein X2 / Binding of serum 37 to linear peptides of protein X2 / Binding of serum 37 to looped/cyclic peptides of protein X2 of SARS-CoV Urbani / Binding of serum 6 to linear peptides of protein M of SARS-CoV Urbani / Binding of serum 37 to linear peptides of protein M of SARS-CoV Urbani / Binding of serum 6 to looped/cyclic peptides of protein M of SARS-CoV Urbani / Binding of serum 37 to looped/cyclic peptides of protein M of SARS-CoV Urbani / Binding of serum 6 to linear peptides of protein X3 of SARS-CoV Urbani / Binding of serum 37 to linear peptides of protein X3 of SARS-CoV Urbani / Binding of serum 37 to looped/cyclic peptides of protein X3 of SARS-CoV Urbani / Binding of serum 6 to linear peptides of protein X4 of SARS-CoV Urbani / Binding of serum 37 to linear peptides of protein X4 of SARS-CoV Urbani / Binding of serum 37 to looped/cyclic peptides of protein X4 of SARS-CoV Urbani / Binding of serum 6 to linear peptides of protein X5 of SARS-CoV Urbani / Binding of serum 37 to linear peptides of protein X5 of SARS-CoV Urbani / Binding of serum 37 to looped/cyclic peptides of protein X5 of SARS-CoV Urbani / Binding of serum 6 to linear peptides of protein N of SARS-CoV Urbani / Binding of serum 37 to linear peptides of protein N of SARS-CoV Urbani / Binding of serum 6 to linear peptide (PEPSCAN-ELISA) / Binding of serum 1a to looped/cyclic peptides of protein N of SARS-CoV Urbani / Binding of serum 1b to looped/cyclic peptides of protein N of SARS-CoV Urbani / Binding of serum 2 to looped/cyclic peptides of protein N of SARS-CoV Urbani / Binding of serum 6 to looped/cyclic peptides of protein N of SARS-CoV Urbani / Binding of serum 37 to looped/cyclic peptides of protein N of SARS-CoV Urbani / Binding of serum 62 to looped/cyclic peptides of protein N of SARS-CoV Urbani / Binding of serum London to looped/cyclic peptides of protein N of SARS-CoV Urbani / Binding of serum SARS-green to looped/cyclic peptides of protein N of SARS-CoV Urbani: unit not given here
[3] = test system: control sera (pooled serum of ten healthy LUMC hospital workers; commercial negative donor pooled serum from the Dutch bloodbank); assay type: binding, human; parameters: Binding of Control serum LUMC to linear peptides / Binding of Control serum Blood-bank to linear peptides / Binding of Control serum LUMC to looped peptides / Binding of Control Serum Blood-Bank to Looped peptides / Binding of Control serum LUMC to linear peptides of the protein M of SARS-CoV Urbani / Binding of Control serum Blood-bank to linear peptides of the protein M of SARS-CoV Urbani / Binding of Control serum LUMC to looped peptides of the protein M of SARS-CoV Urbani / Binding of Control Serum Blood-Bank to Looped peptides of the protein M of SARS-CoV Urbani: unit not given here

Sequence | Rabbit serum linear peptides [1] | Rabbit serum looped peptides [1] | Binding of serum 1a to linear peptides of protein M of SARS-CoV Urbani [2] | Binding of serum 1a to looped/cyclic peptides of protein M of SARS-CoV Urbani [2] | Binding of serum 1b to linear peptides of protein M of SARS-CoV Urbani [2] | Binding of serum 1b to looped/cyclic peptides of protein M of SARS-CoV Urbani [2] | Binding of serum 2 to linear peptides of protein M of SARS-CoV Urbani [2] | Binding of serum 2 to looped/cyclic peptides of protein M of SARS-CoV Urbani [2] | Binding of serum 6 to linear peptides of protein M of SARS-CoV Urbani [2] | Binding of serum 6 to looped/cyclic peptides of protein M of SARS-CoV Urbani [2] | Binding of serum 37 to linear peptides of protein M of SARS-CoV Urbani [2] | Binding of serum 37 to looped/cyclic peptides of protein M of SARS-CoV Urbani [2] | Binding of serum 62 to linear peptides of protein M of SARS-CoV Urbani [2] | Binding of serum 62 to looped/cyclic peptides of protein M of SARS-CoV Urbani [2] | Binding of serum London to linear peptides of protein M of SARS-CoV Urbani [2] | Binding of serum London to looped/cyclic peptides of protein M of SARS-CoV Urbani [2] | Binding of serum SARS-green to linear peptides of protein M of SARS-CoV Urbani [2] | Binding of serum SARS-green to looped/cyclic peptides of protein M of SARS-CoV Urbani [2] | Binding of serum SARS-yellow to linear peptides of protein M of SARS-CoV Urbani [2] | Binding of serum SARS-yellow to looped/cyclic peptides of protein M of SARS-CoV Urbani [2] | other results
WNLVIGFLFLAWIML | 0.2 | 0.3 | 0.7 | 0.6 | 0.6 | 0.5 | 0.4 | 0.6 | 0.3 | 0.4 | 0.4 | 0.6 | 0.4 | 0.6 | 0.3 | 0.2 | 0.4 | 0.3 | 0.2 | 0.7 | Binding of Control Serum Blood-Bank to Looped peptides of the protein M of SARS-CoV Urbani [3]: 0.5; Binding of Control serum Blood-bank to linear peptides of the protein M of SARS-CoV Urbani [3]: 0.6; Binding of Control serum LUMC to linear peptides of the protein M of SARS-CoV Urbani [3]: 0.6; Binding of Control serum LUMC to looped peptides of the protein M of SARS-CoV Urbani [3]: 0.7
WSFNPETNILLNVPL | 0.3 | 0.3 | 1.5 | 0.8 | 1.7 | 0.5 | 1.3 | 0.6 | 1.0 | 0.5 | 0.9 | 0.7 | 1.3 | 0.7 | 1.0 | 0.2 | 1.5 | 0.2 | 1.1 | 0.8 | Binding of Control Serum Blood-Bank to Looped peptides of the protein M of SARS-CoV Urbani [3]: 0.6; Binding of Control serum Blood-bank to linear peptides of the protein M of SARS-CoV Urbani [3]: 1.3; Binding of Control serum LUMC to linear peptides of the protein M of SARS-CoV Urbani [3]: 1.5; Binding of Control serum LUMC to looped peptides of the protein M of SARS-CoV Urbani [3]: 0.8
